Source: US20030114469A1, “Combinations” (priority 2001, published 2003)
Read-outs that look alike come from different tables or passages of the source.

Target: T1, human PDE5, partially purified from human platelets (Homo sapiens, UniProt O76074)
T1 construct: human PDE5, partially purified from human platelets; from tissue; host or cells: human platelets
Assay: PDE5 Assay (SPA, 3H-cGMP)
Assay type: biochemical
Method: 10 μL of each of these solutions is transferred to a selected well of a 96-well Optiplate microtitre plate (e.g., Packard). To determine total binding, 10 μL of aqueous 20% v/v DMSO is added to other selected wells. To determine non-specific binding, a 10 mM solution of sildenafil in 100% DMSO is diluted 20-fold with aqueous 20% v/v DMSO and 10 μL of the resulting solution is added to further selected wells of the Optiplate plate. […] (The PDE Assay Buffer is prepared by dissolving Tris-base (7.56 g) in water (800 mL), adding 1 M aqueous MgCl2 (10.325 mL) and 0.5 M EDTA (4.25 mL), adjusting the pH to 7.5 with 1N hydrochloric acid and making up to 1 L with water). A solution of human PDE5, partially purified from human platelets (11 μL, containing 0.017 units of PDE5 per mL, where 1 unit hydrolyses 1.0 μmole of 3′,5′-cyclic GMP to 5′-GMP per minute at pH 7.5 at 37° C.), in 20 mM Hepes, pH 7.4, 100 mM sodium chloride, 10% v/v glycerol, 1 mM benzamidine and 2 mM dithiotherietol, is diluted 200-fold, with Enzyme Buffer prepared by adding 0.5 M EDTA (2 mL) to a solution of Tris-Base (1.21 g) in water (800 mL), adjusting the pH to 7.5 with 1N HCl and making up to 1 L with water. The diluted PDE5 solution (10 μL) is added to all wells containing test compound, aqueous DMSO or sildenafil solution. The plate is incubated at room temperature for 1 hour. Fifty (50) μL of a suspension of 500 mg PDE Yttrium silicate SPA beads (e.g., Amersham) in 28 mL water is added to each of the wells and the plate is incubated for a further 20 minutes and then sealed using Top Seal-S (e.g., Packard) according to the manufacturer's instructions. The resulting scintillations are counted using a Canberra Packard Top Count (1 minute per well), as a measure of the extent to which binding of PDE5 to the beads is inhibited.

[1] = human platelet PDE5, 3H-cGMP, room temperature 1 hour, yttrium silicate SPA beads, read-out: IC50 (concentration of test compound at which 50% inhibition of PDE5 binding to the beads occurs)

SMILES | IC50 [1] | IC50
COc1cc2cncc(Cc3nc4c(=O)n(C)c(=O)n(CC5(C)CC5)c4[nH]3)c2cc1OC [Example 70, 8-(6,7-dimethoxy-isoquinolin-4-ylmethyl)-1-methyl-3-(1-methyl-cyclopropylmethyl)-3,9-dihydro-purine-2,6-dione] | 9 nM | –
COc1cc2c(Cc3nc4c([nH]3)c(=O)n(C)c(=O)n4CC(C)C)cnc(C)c2cc1OC [Example 7, 8-(6,7-dimethoxy-1-methyl-isoquinolin-4-ylmethyl)-3-isobutyl-1-methyl-3,7-dihydro-purine-2,6-dione] | – | 7 nM
COc1cc2cncc(Cc3nc4c([nH]3)c(=O)n(C)c(=O)n4CC(C)C)c2cc1OC [Example 10, 8-(6,7-dimethoxy-isoquinolin-4-ylmethyl)-3-isobutyl-1-methyl-3,7-dihydro-purine-2,6-dione] | – | 10 nM
COc1cc2cncc(Cc3nc4c([nH]3)c(=O)n(C)c(=O)n4CC(C)CO)c2cc1OC (stereo not shown) [Example 68, 8-(6,7-dimethoxy-isoquinolin-4-ylmethyl)-3-(3-hydroxy-2-methyl-propyl)-1-methyl-3,7-dihydro-purine-2,6-dione] | – | 7 nM
COc1cc2cncc(Cc3nc4c([nH]3)c(=O)n(C)c(=O)n4Cc3ccc(NS(=O)(=O)N(C)C)cc3)c2cc1OC [Example 60] | 2.8 nM | –
C#Cc1ccc2cncc(Cc3nc4c([nH]3)c(=O)n(C)c(=O)n4CC(C)C)c2c1 [Example 55, 8-(6-ethynyl-isoquinolin-4-ylmethyl)-3-isobutyl-1-methyl-3,7-dihydro-purine-2,6-dione] | 5.5 nM | –
COc1cc2c(Cc3nc4c([nH]3)c(=O)n(C)c(=O)n4CC(C)C)cnc(Cl)c2cc1OC [Example 35, 8-(1-chloro-6,7-dimethoxy-isoquinolin-4-ylmethyl)-3-isobutyl-1-methyl-3,7-dihydro-purine-2,6-dione] | 10 nM | –
COc1ccc2cncc(Cc3nc4c([nH]3)c(=O)n(C)c(=O)n4CC3CC3)c2c1 [Example 49] | 3.7 nM | –
COc1ccc2cncc(Cc3nc4c([nH]3)c(=O)n(C)c(=O)n4CC(C)C)c2c1 [Example 45, 3-isobutyl-8-(6-methoxy-isoquinolin-4-ylmethyl)-1-methyl-3,7-dihydro-purine-2,6-dione] | – | 2 nM
COc1cc2cncc(Cc3nc4c([nH]3)c(=O)n(C)c(=O)n4CC(C)(C)C)c2cc1OC [Example 15] | – | 6 nM
